# Measurements taken from US7432276B2, “ABCA1 elevating compounds” (CV Therapeutics, Inc., priority 2005, dated 2008).
# Tested on: ABCA1 mRNA
# Test: ABCA1 mRNA induction in THP-1 cells, QuantiGene branched DNA assay
# Type: cell-based
# Conditions: 10 μM test compound, 18-20 hours
# Method: Modulation of expression of ABCA1 mRNA levels by the compounds of the invention was determined in the following assays.
# Induction of ABC1 in THP-1 cells, was measured using QuantiGene® branched DNA assay as per manufacturer's instructions. Cultures of THP-1 were grown to subconfluence in DMEM/10% FBS before replacement with DMEM/BSA and 10 and 3 μM concentrations of the test compounds in DMSO for 18-20 hours. After treatment of cells with compounds, the cells were lysed with lysis buffer at 37° C. for 20 minutes. The cell lysate and ABCA1 specific probe (Genospectra, Inc., Fremont, Calif.) mix were added to the 96 well capture plate and hybridized at 53° C. for 16-18 hours. The signal was amplified using the amplifier and label probes provided with the QuantiGene® assay followed by addition of a luminescent alkaline phosphatase substrate, dioxitane. Luminescence was quantified in Victor V plate reader.
# Step 1 • Cells are lysed to release mRNA in the presence of target probes. Target mRNA from lysed cells was then captured by hybridization and transferred to the Capture Plate.
# Step 2 • Signal amplification was performed by hybridization of the bDNA Amplifier and Label Probe.
# Step 3 • Addition of chemiluminescence substrate yielded a QuantiGene® signal proportional to the amount of mRNA present in the sample.
# Table 1 presents the relative fold increase in ABCA1 expression over DMSO for various compounds of the invention when tested at a concentration of […].
row,Structure (SMILES),ABCA1 Induction Fold Increase over DMSO Vehicle
1,"CCS(=O)(=O)N1CCN(C(=O)c2cnn(-c3ccc4c(c3)C(C)(C)[C@H]3COc5cccc(F)c5[C@H]3N4)c2C)CC1 [Number 144, 1-((6aR,12aS)-6a,7,12,12a-tetrahydro-1-fluoro-7,7-dimethyl-6H-chromeno[4,3-b]quinolin-9-yl)-5-methyl-1H-pyrazole-4-((4-ethanesulfonylpiperazin-1-yl)methanone)]",2.1 FOLD INCREASE
2,"COC(=O)CCc1ccc2c(c1)C1Nc3ccc(C(O)(C(F)(F)F)C(F)(F)F)cc3C(C)(C)C1CO2 (stereo not drawn) [Number 40, methyl 3-{7,7-dimethyl-9-[2,2,2-trifluoro-1-hydroxy-1-(trifluoromethyl)ethyl]-7,12,12a,6a-tetrahydrochromano[4,3-b]quinolin-2-yl}propanoate]",2.1 FOLD INCREASE
3,"C#Cc1ccc2c(c1)C(C)(C)[C@H]1COc3cccc(OC)c3[C@H]1N2 [Number 95, (12aS,6aR)-9-ethynyl-1-methoxy-7,7-dimethyl-7,12,12a,6a-tetrahydrochromano[4,3-b]quinoline]",4.3 FOLD INCREASE
4,"COc1cccc2c1OC[C@@H]1[C@H]2Nc2ccc(CCC(=O)O)cc2C1(C)C [Number 27, 3-((6aS,12aR)-4-methoxy-7,7-dimethyl-7,12,12a,6a-tetrahydrochromano[4,3-b]quinolin-9-yl)propanoic acid]",3.3 FOLD INCREASE
5,"CC1(C)c2cc(-c3nc(C(=O)N4CCS(=O)(=O)CC4)co3)ccc2N[C@@H]2c3c(F)cccc3OC[C@@H]21 [Number 143, 2-((6aR,12aS)-1-fluoro-6a,7,12,12a-tetrahydro-7,7-dimethyl-6H-chromeno[4,3-b]quinolin-9-yl)oxazole-(4-(1,1-dione-1,4-thiazaperhydroin-yl)methanone)]",6.1 FOLD INCREASE
6,"COc1cccc2c1[C@H]1Nc3ccc(-c4cnco4)cc3C(C)(C)[C@H]1CO2 [Number 62, (12aS,6aR)-1-methoxy-7,7-dimethyl-9-(1,3-oxazol-5-yl)-7,12,12a,6a-tetrahydrochromano[4,3-b]quinoline]",10.6 FOLD INCREASE
7,"COc1cccc2c1OCC1C2Nc2ccc(-c3nnn[nH]3)cc2C1(C)C (stereo not drawn) [Number 19, 4-methoxy-7,7-dimethyl-9-(1,2,3,4-tetraazol-5-yl)-7,12,12a,6a-tetrahydrochromano[4,3-b]quinoline]",5.6 FOLD INCREASE
8,"CC1(C)c2cc(C(O)(C(F)(F)F)C(F)(F)F)ccc2NC2c3cc(F)cc(F)c3OCC21 (stereo not drawn) [Number 67, 2-(2,4-difluoro-7,7-dimethyl(7,12,12a,6a-tetrahydrochromano[4,3-b]quinolin-9-yl))-1,1,1,3,3,3-hexafluoropropan-2-ol]",3.3 FOLD INCREASE
9,"COc1cccc2c1[C@H]1Nc3ccc(F)cc3C(C)(C)[C@H]1CO2 [Number 55, (12aS,6aR)-9-fluoro-1-methoxy-7,7-dimethyl-7,12,12a,6a-tetrahydrochromano[4,3-b]quinoline]",2.5 FOLD INCREASE
10,"COc1cccc2c1[C@H]1Nc3ccc(-c4cc[nH]n4)cc3C(C)(C)[C@H]1CO2 [Number 111, (12aS,6aR)-1-methoxy-7,7-dimethyl-9-pyrazol-3-yl-7,12,12a,6a-tetrahydrochromano[4,3-b]quinoline]",4.7 FOLD INCREASE
11,"COc1cc(Br)cc2c1OC[C@@H]1[C@H]2Nc2ccc(C(O)(C(F)(F)F)C(F)(F)F)cc2C1(C)C [Number 65, 2-((6aS,12aR)-2-bromo-4-methoxy-7,7-dimethyl(7,12,12a,6a-tetrahydrochromano[4,3-b]quinolin-9-yl))-1,1,1,3,3,3-hexafluoropropan-2-ol]",3.2 FOLD INCREASE

# Same assay, conditions: Homo sapiens, 10 μM test compound, 18-20 hours, read-out: ABCA1 Induction Fold Increase over DMSO Vehicle
row,Structure (SMILES),fold induction at 10 µM
1,"COC(=O)CCN1c2ccccc2C(C)(C)[C@H]2COc3cccc(OC)c3[C@@H]21 [Number 171, methyl 3-((6aR,12aR)-6a,7-dihydro-1-methoxy-7,7-dimethyl-6H-chromeno[4,3-b]quinolin-12(12aH)-yl)propanoate]",2.2
2,"COc1cc(I)cc2c1OC[C@H]1[C@@H]2Nc2ccc(-n3ncc(C(=O)O)c3C)cc2C1(C)C [Number 178, 1-((6aR,12aS)-6a,7,12,12a-tetrahydro-2-iodo-4-methoxy-7,7-dimethyl-6H-chromeno[4,3-b]quinolin-9-yl)-5-methyl-1H-pyrazole-4-carboxylic acid]",5.1
3,"COc1cccc2c1OC[C@H]1[C@@H]2Nc2ccc(C(=O)N3CCOCC3)cc2C1(C)C [Number 119, ((6aR,12aS)-6a,7,12,12a-tetrahydro-4-methoxy-7,7-dimethyl-6H-chromeno[4,3-b]quinolin-9-yl)(morpholino)methanone]",7.5
4,"COC(=O)c1ccc2c(c1)C(C)(C)[C@H]1COc3c(OC)cc(Br)cc3[C@H]1N2 [Number 151, (6aR,12aS)-methyl 2-bromo-6a,7,12,12a-tetrahydro-4-methoxy-7,7-dimethyl-6H-chromeno[4,3-b]quinoline-9-carboxylate]",6.3
5,"COc1cc(-c2cn[nH]c2)cc2c1OC[C@H]1[C@@H]2Nc2ccc(-c3cnco3)cc2C1(C)C [Number 159, (6aR,12aS)-6a,7,12,12a-tetrahydro-4-methoxy-7,7-dimethyl-9-(oxazol-5-yl)-2-(1H-pyrazol-4-yl)-6H-chromeno[4,3-b]quinoline]",7.6
6,"CCS(=O)(=O)N1CCN(C(=O)c2ccc3c(c2)C(C)(C)[C@@H]2COc4c(OC)cccc4[C@H]2N3)CC1 [Number 133, ((6aS,12aS)-4-methoxy-6a,7,12,12a-tetrahydro-7,7-dimethyl-6H-chromeno[4,3-b]quinolin-9-yl)(4-ethanesulfonylpiperazin-1-yl)methanone]",3.8
7,"COc1cccc2c1[C@@H]1[C@@H](CO2)C(C)(C)c2ccccc2N1C1CCCCC1 [Number 167, (6aS,12aS)-12-cyclohexyl-6a,7,12,12a-tetrahydro-1-methoxy-7,7-dimethyl-6H-chromeno[4,3-b]quinoline]",7.9
8,"COc1cc(I)cc2c1OC[C@@H]1[C@@H]2Nc2ccc(-n3ncc(C(=O)O)c3C)cc2C1(C)C [Number 177, 1-((6aS,12aS)-6a,7,12,12a-tetrahydro-2-iodo-4-methoxy-7,7-dimethyl-6H-chromeno[4,3-b]quinolin-9-yl)-5-methyl-1H-pyrazole-4-carboxylic acid]",2.6
9,"CCOC(=O)CN1c2ccccc2C(C)(C)[C@H]2COc3cccc(OC)c3[C@H]21 [Number 157, ethyl 2-((6aR,12aS)-6a,7-dihydro-1-methoxy-7,7-dimethyl-6H-chromeno[4,3-b]quinolin-12(12aH)-yl)acetate]",3.3
10,"COc1cc(Br)cc2c1OC[C@@H]1[C@@H]2Nc2ccc(-c3cnco3)cc2C1(C)C [Number 150, (6aS,12aS)-2-bromo-6a,7,12,12a-tetrahydro-4-methoxy-7,7-dimethyl-9-(oxazol-5-yl)-6H-chromeno[4,3-b]quinoline]",12.5
